In brackets after ≈: the same amount, converted by molar mass. Several values for one entry are separate records, joined by “and”; a condition that tells them apart may be missing. Equal entries are not always repeated. Where two headings read alike, the source gives them in different places.
Assays:
[1] = Experimental: Permeation experiments were carried out using all glass Franz-type cells incorporating callous plantar skin between a donor and receptor phase. Callous cuttings of approximately 0.6 cm diameter were required to fit the customised ‘franz’ cells used. Consequently, an in vitro permeation study was conducted that used 5 cells per gel treatment, with no more than a total of 15 cells being run simultaneously. […] An infinite dose of gel (˜1 g) was added to each donor compartment via syringe and PEG400, being used as a receptor phase in each, thereby enabling adequate ‘sink’ conditions, limiting hydrodynamic boundary effects and tissue swelling effects. The applied gel was occluded with glass cover slips and the cells stirred in a thermostatically controlled water bath, maintaining the skin temperature at 32° C. […] A total of five replicates were carried our for each gel. All samples were immediately analysed by HPLC.
The breakthrough time was taken from the point at which permeant was first detected in the receptor phase (dependent on the MDL for each permeant). Lag times were calculated by extrapolating the linear section of the cumulative amount permeated (steady state flux) to the X-axis (time).

[2] = tested on: Herpes simplex virus (HSV); assay: HSV standard plaque inhibition assay; assay type: cell-based
From the text: Using Herpes simplex virus (HSV), 50% plaque inhibitory dose (1D50) were established using the standard plaque inhibition assay.

[3] = tested on: Herpes simplex virus (HSV); assay: HSV virus yield (infectious virus particle production); assay type: cell-based; settings: solvent as listed per compound; Torasemide at 90 μg/ml
[4] = for Flux: Q24 divided by 24
[5] = tested on: Varicella Zoster Virus (VZV)
[6] = tested on: feline herpesvirus
[7] = tested on: MRC5 cells; settings: uninfected cells; drug(s) at VZV ID 50 concentrations
[8] = physchem; settings: 32 °C, aqueous with cosolvent or surfactant or cyclodextrin, thermodynamic from solid
[9] = tested on: MRC5 cells; assay: MRC5 cell replication; settings: Frusemide 1.0 mg/ml; Digoxin 0.05 μg/ml; both at their VZV ID50 concentrations
[10] = tested on: MRC5 cells; assay: MRC5 cell morphology / tolerance; settings: Frusemide 1.0 mg/ml; Digoxin 0.05 ug/ml; combined dosage at individual ID 50; 72 hours
[11] = tested on: Varicella Zoster Virus (VZV); assay: microbe, parasite or virus in culture; settings: Human alphaherpesvirus 3, MRC5, read-out: Digoxin IC50
[12] = tested on: Adenovirus; assay: 50% plaque inhibitory concentration, Adenovirus; settings: unidentified adenovirus, A549, read-out: Digoxin IC50
[13] = tested on: Cytomegalovirus; assay: 50% plaque inhibitory concentration, Cytomegalovirus; settings: Human betaherpesvirus 5, MRC5, read-out: Digoxin IC50
[14] = Saturated solubility in solvents and co-solvent mixes at 32° C
[15] = ‘Max’ Furosemide Gel Formulation

C[C@H]1O[C@@H](O[C@H]2[C@@H](O)C[C@H](O[C@H]3[C@@H](O)C[C@H](O[C@H]4CC[C@@]5(C)[C@H](CC[C@@H]6[C@@H]5C[C@@H](O)[C@]5(C)[C@@H](C7=CC(=O)OC7)CC[C@]65O)C4)O[C@@H]3C)O[C@@H]2C)C[C@H](O)[C@@H]1O [Digoxin]
Lag time ([1]; 40:40:20 Prototype gel): 100 h
Permeation co-efficient ([1]; 40:40:20 Prototype gel): 1.1 × 10^−3 cmhr^−1
Steady state flux ([1]; 40:40:20 Prototype gel): 1.14 ± 0.28 μc cm^−2hr^−1
Breakthrough time ([1]; Dig/Fur Ampule Gel Formulation): ~24 h
Lag time ([1]; Dig/Fur Ampule Gel Formulation): 82 h
Steady state flux ([1]; Dig/Fur Ampule Gel Formulation): 0.069 μc cm^−2hr^−1
reduction of amount permeated, prototype versus ‘Max’ Digoxin gel ([1]; at 144 hours): 3.36 fold
steady state of flux ([1]; prototype gel): 1.14±0.28 μg cm^−2 hr^−1
amount permeated ([1]; prototype gel, at 144 hours): 30 μg cm^−2
Lag time ([1]; ‘Max’ Digoxin Gel Formulation): 18 h
Steady state flux ([1]; ‘Max’ Digoxin Gel Formulation): 1.015 μc cm^−2hr^−1
Breakthrough time ([1]; ‘Max’ Digoxin Gel Formulation (50:40:10, 8% HPC, pH 5)): ~1 h
steady state of flux ([1]; ‘Max’ Digoxin gel formulation): 1.015 μg cm^−2 hr^−1
amount permeated ([1]; ‘Max’ Digoxin gel, at 144 hours): 101 μg cm^−2
Lag time [1, 15]: 68 h
Steady state flux [1, 15]: 0.455 μc cm^−2hr^−1
Breakthrough time ([1]; ‘Max’ Furosemide Gel Formulation (50:20:20:10, 8% HPC, pH 5)): ~12 h
ICVT activity [2]: potent ICVT activity
ID50 [2]: 60 ng per ml
comparative ‘ICVT-ivities’ [2]: as effective as Lanoxin
IC50 ([2]; BHK-21, read-out: Digoxin IC50): 0.03 µg/mL (≈ 0.0384 µM)
IC50 ([2]; MRC5, read-out: Digoxin IC50): 0.02 ± 0.0075 µg/mL (≈ 0.0256 µM)
IC50 ([2]; Vero, read-out: Digoxin IC50): 0.06 µg/mL (≈ 0.0768 µM)
HSV yield [3]: HSV yield reduced
maximum concentrations observed in the receptor phase ([4]; 40:40:20 gels): 42.47 µg/mL
Release date ([4]; Ampule Formulation): 8.1 μg cm^−2 h^0.5
Q24 ([4]; Ampule Formulation (8% HPC)): 34 μg cm^−2
Flux ([4]; Ampule Formulation): 1.4 μg cm^−2 h^−1
% applied dose ([4]; Gel 1:1, pH 7): 1.6%
Release Rate ([4]; Gel 1:1, pH 7): 3.48 μg cm^−2 h^0.5
Flux ([4]; Gel 1:1, pH 7): 0.59 μg cm^−2 h^−1
Q24 ([4]; Gel 1:1, prototype 40:40:20 mix, pH 7, 24 h): 14.07 μg cm^−2
Q24 ([4]; Gel 14:1 (F:D), prototype 40:40:20 mix, […] 981NF, pH 5, 24 h): 42.47 μg cm^−2
Flux ([4]; Gel 14:1, pH 5): 1.77 μg cm^−2 h^−1
% applied dose ([4]; Gel 14:1, pH 5, assuming 2 g of gel in donor): 4.0%
Release Rate ([4]; Gel 14:1, pH 5, gradient of square root of time plot): 10.18 μg cm^−2 h^0.5
% applied dose ([4]; Gel 14:1, pH 7): 1.6%
Flux ([4]; Gel 14:1, pH 7): 0.73 μg cm^−2 h^−1
% applied dose ([4]; Gel 14:1, pH 9): 0.1%
Flux ([4]; Gel 14:1, pH 9): 0.14 μg cm^−2 h^−1
Q24 ([4]; Gel 14:1, prototype 40:40:20 mix, pH 7, 24 h): 17.62 μg cm^−2
Q24 ([4]; Gel 14:1, prototype 40:40:20 mix, pH 9, 24 h): 3.34 μg cm^−2
Release date ([4]; HPC Formulation): 245 μg cm^−2 h^0.5 and 243 μg cm^−2 h^0.5
Q24 ([4]; HPC Formulation (revised 50:40:10 gel, 8% HPC, pH 5, 14:1)): 934 μg cm^−2
Flux ([4]; HPC Formulation): 39 μg cm^−2 h^−1
Release date ([4]; Ultrez Formulation): 274 μg cm^−2 h^0.5
Q24 ([4]; Ultrez Formulation (revised 50:40:10 gel, […] Ultrez, pH 5, 14:1)): 1138 μg cm^−2
Flux ([4]; Ultrez Formulation): 45 μg cm^−2 h^−1
reduction of release rate, 1:1 Gel versus 1:14 Gel ([4]; pH 7): 1.2 fold
VZV plaques ([5]; Digoxin 0.025 ug/ml, HIGH MOI): TNTC
VZV plaques ([5]; Digoxin 0.025 ug/ml, INTERMEDIATE MOI): TNTC
VZV plaques ([5]; Digoxin 0.025 ug/ml, LOW MOI, control 61): 55^
VZV plaques ([5]; Digoxin 0.050 ug/ml, HIGH MOI): TNTC
VZV plaques ([5]; Digoxin 0.050 ug/ml, INTERMEDIATE MOI): TNTC
VZV plaques ([5]; Digoxin 0.050 ug/ml, LOW MOI, control 61): 21^3
VZV plaques ([5]; Digoxin 0.100 ug/ml, HIGH MOI): 0^4
VZV plaques ([5]; Digoxin 0.100 ug/ml, INTERMEDIATE MOI): 0^4
VZV plaques ([5]; Digoxin 0.100 ug/ml, LOW MOI, control 61): 0^4
VZV plaque formation inhibited by ([5]; Frusemide at 1.0 mg/ml, Digoxin at 0.05 ug/ml): 50%
VZV plaques ([5]; High MOI (100 × Low), drug(s) at IC50): TNTC
VZV plaques ([5]; Intermediate MOI (10 × Low), drug(s) at IC50): TNTC
VZV plaques ([5]; Low MOI, drug(s) at IC50, Control 61): 21 and 21^5
VZV plaque formation inhibited by ([5]; each at respective IC50, Low MOI): about 50%
Virus particles per cell ([6]; each drug at its IC50, alone or both combined, No Drug 50): 0.75
production of infectious virus reduced by ([6]; each drug at its IC50, individually or in combination): 98.5%
remaining low level of virus replication ([6]; each drug individually at its IC50): 0.5%
MRC5 cell metabolism, MTT assay [7]: normal levels of metabolism
solubility at 24 h [8]: 433 µg/mL (≈ 554 µM)
replication of uninfected MRC5 cells [9]: replicated to normal yields
tolerance by MRC5 cells (morphology, replication) [10]: very well tolerated
IC50 [11]: 0.02 ± 0.0075 µg/mL (≈ 0.0256 µM)
IC50 [12]: 0.077 ± 0.022 µg/mL (≈ 0.0986 µM)
IC50 [13]: 0.02 ± 0.0075 µg/mL (≈ 0.0256 µM)
solubility in water ([14]; 32° C): relatively insoluble in water
solubility at 24 h ([14]; 32 °C, organic solvent or mixture, thermodynamic from solid): 6270 µg/mL (≈ 8020 µM)
number of moles in saturated solution ([14]; 40:40:20 co-solvents mix): 0.55 μmol cm^−3
saturation limit ([14]; 40:40:20 co-solvents mix): 433 μg cm^−3
increase in solubility, second versus first co-solvent mix ([14]; 50:40:10 versus 40:40:20): −15 fold
solubility in each individual solvent ([14]; ethanol, propylene glycol, PEG400, water, 32° C): highest solubility in ethanol and propylene glycol with relatively low solubility in PEG400 and water

Reference: patent US20080220066A1 (HENDERSON MORLEY PLC, priority 2005, published 2008)
